Experimental data: US9539256B2 (THE BOARD OF REGENTS OF THE UNIVERSITY OF TEXAS SYSTEM, priority 2012, dated 2017)
“Also recorded” adds a separate entry of the source.

What was measured:
EPAC1 [1] = molecular target: T1, EPAC1 (Homo sapiens, UniProt O95398); test: Phosphorylation of Akt in HEK293/EPAC1 cells; format: cell-based; conditions: 10 μM for 5 min before 007-AM
T1 sequence (O95398 1-923): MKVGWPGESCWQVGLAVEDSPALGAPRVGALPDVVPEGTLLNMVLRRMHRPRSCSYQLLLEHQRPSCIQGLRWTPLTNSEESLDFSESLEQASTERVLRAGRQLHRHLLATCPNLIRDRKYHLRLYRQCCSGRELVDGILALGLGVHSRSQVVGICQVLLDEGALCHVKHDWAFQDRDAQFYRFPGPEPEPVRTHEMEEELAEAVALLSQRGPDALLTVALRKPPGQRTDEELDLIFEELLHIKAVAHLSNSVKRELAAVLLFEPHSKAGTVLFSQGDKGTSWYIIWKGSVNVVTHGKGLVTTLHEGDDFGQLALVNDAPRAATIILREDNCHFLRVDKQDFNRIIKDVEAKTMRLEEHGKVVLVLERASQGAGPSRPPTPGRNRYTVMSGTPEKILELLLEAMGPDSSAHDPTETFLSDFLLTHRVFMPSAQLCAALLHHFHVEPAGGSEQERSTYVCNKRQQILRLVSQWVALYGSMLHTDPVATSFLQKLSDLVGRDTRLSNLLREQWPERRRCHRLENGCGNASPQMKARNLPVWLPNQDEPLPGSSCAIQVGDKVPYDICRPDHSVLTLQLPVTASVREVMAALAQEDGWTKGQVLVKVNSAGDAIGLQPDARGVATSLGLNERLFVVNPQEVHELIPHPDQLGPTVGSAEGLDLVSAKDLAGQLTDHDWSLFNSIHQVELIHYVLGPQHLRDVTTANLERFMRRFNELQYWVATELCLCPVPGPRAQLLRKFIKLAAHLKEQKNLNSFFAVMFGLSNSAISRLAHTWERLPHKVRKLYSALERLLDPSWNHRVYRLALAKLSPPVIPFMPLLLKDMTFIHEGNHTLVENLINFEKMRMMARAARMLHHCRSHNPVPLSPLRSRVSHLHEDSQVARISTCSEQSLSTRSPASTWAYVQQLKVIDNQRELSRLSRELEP
Experimental: FIG. 10. Effect of ESI-09 on EPAC-mediated PKB phosphorylation in HEK293/EPAC1, HEK293/EPAC2, and human vascular smooth muscle (hVSMC) cells. Serum-starved HEK293/EPAC1, HEK293/EPAC2, and hVSMC cells with or without pretreatment of […] ESI-09 were stimulated with 10 μM 007-AM. Cell lysates were subjected to Western blot analysis as described under “Experimental Procedures” using anti-phospho-Ser473-specific (PKB-P473) and anti-phospho-Thr308-specific (PKB-P308) PKB antibodies.
Cellular proteins from cell lysates treated with various reagents were separated by SDS-PAGE and transferred to polyvinylidene difluoride membrane. The levels of Akt activation were probed by immuno-blotting analyses using anti-phosphate T308 PKB antibodies (1:1000) and anti-phosphate S473 PKB antibodies (1:1000). At least three independent experiments were performed for each Western blot.

AsPC-1 and PANC-1 cells [2] = test: Pancreatic cancer cell viability, alamar blue assay; format: cell-based; design: dose or concentration left out as unconfirmed; conditions: ESI-09 for 24 hours and 48 hours
Experimental: FIG. 11. Effects of ESI-09 treatment on pancreatic cancer cell viability. AsPC-1 and PANC-1 cells were treated with vehicle control (open bars) or with […] ESI-09 (filled bars) for 24 hours and 48 hours. Cell viability was measured by a fluorometric alamar blue assay. Bars represent mean±s.d. (n=3).

AsPC-1 and PANC-1 cells [3] = test: Cell adhesion assay on collagen I matrix; format: cell-based; conditions: pre-treatment 5 minutes, 10 μM 007-AM
Experimental: FIG. 13 ESI-09 inhibits EPAC1-mediated adhesion of PDA cells on collagen I. AsPC-1 and PANC-1 cells were stimulated with vehicle or 10 μM 007-AM after treatment with the indicated concentrations of ESI-09 for 5 minutes. Bars represent mean±s.d.
It has been recently reported that EPAC1 is over-expressed in pancreatic adenocarcinoma (Lorenz et al. (2008) Pancreas 37: 102-103). However, the functional role of EPAC1 elevation in this neoplasm is not clear. The inventors sought to employ ESI-09 to determine the role of EPAC1 signaling in pancreatic cancer. […] In order to determine if the observed impact on cell migration is EPAC1 specific, the effect of suppressing EPAC1 expression on AsPC-1 and PANC-1 migration using RNAi was examined. […] To further determine how ESI-09 inhibits PDA cell migration and invasion, a cell adhesion assay was performed using a collagen I matrix. […] To determine the in vivo anti-metastatic effect of ESI-09, MIA PaCa-2 stably expressing luciferase were orthotopically implanted into the pancreas of athymic nude mice. The mice were randomly divided into two groups and treated with vehicle or ESI-09 (50 mg/kg per day, oral gavage), respectively. The growth and metastasis of the tumors were monitored by weekly bioluminescence imaging using the IVIS bioluminescence imaging system.

[4] = test system: OVA-specific IgG1 antibodies; test: Oral ovalbumin immunization, serum OVA-IgG1; format: in vivo; conditions: WT mice, oral gavage 50 mg/kg, versus vehicle
R. australia = R. australia infection of HUVEC cells, immunofluorescence; format: cell-based; conditions: 24 hours post infection
Experimental: FIG. 22. ESI-09 treatment suppresses cellular entry of R. australia. HUVEC cells treated with vehicle or ESI-09 were infected with R. australia. The levels of R. australia (Red) and EPAC1 (Green) were monitored with immunofluorescence staining 24 hours post infection.
To investigate the mechanism of EPAC1 inhibition-mediated protection of R. australia infection, HUVEC cells treated with vehicle or ESI-09 were infected with R. australia.

Plasma leptin = Plasma leptin of wild-type mice after 3 weeks treatment; format: in vivo; conditions: 50 mg/kg oral gavage for 3 weeks; relative to vehicle
Experimental: FIGS. 17A-17B. Pharmacological inhibition of EPAC reduces plasma leptin and enhances leptin signaling in hypothalamus (A) Western blotting of pSTAT3 Y705, total STAT3, SOCS3, SHP2 and α-tubulin in organotypic brain slices at hypothalamus level treated with leptin with or without EPAC specific inhibitor. (B) Plasma leptin levels of 8-week-old wild-type mice treated 3 weeks with vehicle or ESI-09 (50 mg/kg).
To explore the feasibility of increasing leptin sensitivity by targeting Epac1 using small molecules, organotypic brain slice cultures were prepared from 11-day old wild-type C57BL/6 mice. After 7 days ex vivo culture, treatment of the brain tissue with the Epac specific antagonist ESI-09 led to an enhanced pSTAT3 Y705 level both at the basal state and in response to leptin stimulation. […] These pharmacological data are in agreement with results obtained using Epac1 KO mice and further confirm that inhibition of Epac1 enhances leptin signaling in the hypothalamus. To further investigate the therapeutic potential of this small molecule, wild-type mice were with ESI-09 (50 mg/kg) or vehicle (corn oil) by oral gavage for 3 weeks.

EPAC1 [5] = molecular target: T1, EPAC1; test: Rap1-GDP exchange (GEF) activity assay, EPAC1

## CC(C)(C)c1cc(C(=O)C(C#N)=NNc2cccc(Cl)c2)no1 [ESI-09, 3-(5-Tert-Butyl-Isoxazol-3-Yl)-2-[(3-Chlorophenyl)-Hydrazono]-3-Oxo-Propionitrile]
EPAC1 [1]
  EPAC1-mediated Akt phosphorylation (T308 and S473): completely blocked
AsPC-1 and PANC-1 cells [2]
  cell proliferation and viability: did not significantly affect
AsPC-1 and PANC-1 cells [3]
  007-AM induced cell adhesion: decreased 007-AM induced cell adhesion dose-dependently; also recorded: inhibits
[4]
  serum OVA-specific IgG1 antibodies: significantly higher; also recorded: increases
R. australia
  number of intracellular R. australia (cellular entry): dramatically reduced; also recorded: suppresses
Plasma leptin
  Plasma leptin: significantly reduced
EPAC1 [5]
  IC50: 3.2 µM
